{"source": "paper PMC11682119", "about": "(Scientific Reports, 2024)", "biological_target": "T1, hALDH2 (Homo sapiens, UniProt P05091)", "T1 sequence (P05091 18-517)": "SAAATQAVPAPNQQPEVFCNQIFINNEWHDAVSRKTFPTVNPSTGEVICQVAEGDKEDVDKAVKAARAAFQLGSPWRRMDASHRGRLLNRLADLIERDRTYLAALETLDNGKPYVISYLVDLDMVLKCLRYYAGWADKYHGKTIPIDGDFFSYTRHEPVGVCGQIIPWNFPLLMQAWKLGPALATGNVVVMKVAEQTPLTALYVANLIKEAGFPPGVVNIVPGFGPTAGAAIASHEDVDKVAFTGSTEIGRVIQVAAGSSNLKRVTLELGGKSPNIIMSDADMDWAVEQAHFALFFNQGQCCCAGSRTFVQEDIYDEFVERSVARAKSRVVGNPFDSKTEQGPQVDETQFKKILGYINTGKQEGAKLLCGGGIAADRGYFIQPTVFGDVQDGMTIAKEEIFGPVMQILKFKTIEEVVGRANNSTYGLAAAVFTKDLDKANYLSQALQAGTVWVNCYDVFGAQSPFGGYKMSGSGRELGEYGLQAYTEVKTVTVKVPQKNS", "type": "biochemical", "data": [{"smiles": "CN(C)C(=S)SSC(=S)N(C)C", "note": "[thiram]", "values": [{"measurement": "IC50", "value": 1600, "unit": "nM"}]}]}
